The values below come from patent publication US20130096054A1, “LATENT HUMAN IMMUNODEFICIENCY VIRUS REACTIVIATION” (priority 2010, published 2013).

Data set [1] relates to latently HIV-1 infected CA5 T cells. The following applies: for priming effect on HIV-1 reactivation by sub-optimal dose of HRF: pretreatment with increasing concentrations, then sub-optimal HRF. The protocol: CA5 T cells were pretreated with increasing concentrations of dactinomycin (DM) (FIG. 11A), the DNA intercalator daunorubicin (DR) (FIG. 11B), or the transcription inhibitors DRB (FIG. 11 C) and α-amanitin (FIG. 11D) (concentrations indicated). The cells were then left unstimulated (white circles) or activated with a sub-optimal concentration of HRF (black circles). Reactivation levels were determined as the percentage of GFP-positive cells 24 hours after stimulation. Viability of the cells correlates with the size of the symbol (size range adjusted to 5-95%).
Infection levels in the cell cultures were monitored by flow cytometric analysis of EGFP expression. Flow cytometric analysis was performed on a GUAVA EasyCyte (Millipore; Billerica, Mass.), or a LSRII (Becton & Dickinson; Franklin Lakes, N.J.).
Bacteria from various sources were isolated on TSA II agar plates containing 5% sheep blood. Bacterial isolates were then grown in RPMI 1640 medium supplemented with 10% FBS. After two days of incubation at 37° C. bacteria were pelleted and resuspended in RPMI medium to an optical density (OD600) of 8, aliquoted and frozen at −80° C. Unless otherwise indicated, Massilia timonae was grown in RPMI 1640 medium supplemented with 10% FBS. Typically, medium was inoculated with Massilia timonae from frozen stocks to an OD600 of 0.01. After 48 hours at 37° C., the culture was centrifuged at 3200 g to separate bacteria from the culture medium. Bacteria were resuspended in fresh medium to an OD600 of 8 and frozen to be used as references and stock cultures. The supernatant was then centrifuged at 10,000 g for 20 minutes and sterilized by passage through an 0.2 μm PVDF filter with low protein binding ability. HRF activity was determined by its ability to reactivate latent HIV-1 infection in CA5 cells. Only supernatants of which 6 μl reactivated infection in at least 60% of CA5 cells were used to study HRF properties.
(§1) Infection levels in the cell cultures were monitored by flow cytometric (FCM) analysis of GFP expression. FCM analysis was performed on a GUAVA EasyCyte (GUAVA Technologies, Inc.; Millipore; Billerica, Mass.) and a BD FACSCalibur or a LSR11 (Becton & Dickinson; Franklin Lakes, N.J.). Cell sorting experiments were performed using a FACSAria™ Flow Cytometer (Becton&Dickinson). Data analysis was performed using either CellQuest (Becton&Dickinson) or GUAVA Express (GUAVA Technologies, Inc.).
To identify the optimal concentration of dactinomycin, CA5 T cells were pretreated with increasing concentrations of dactinomycin (0.0001 and 1 μg/ml), and then left untreated or stimulated with a sub-optimal concentration of HRF or TNF-α. […] Twenty four hours after activator addition, levels of HIV-1 reactivation were determined as the percentage of GFP-positive cells using flow cytometric analysis, which allowed for the simultaneous determination of cell viability.

In data set [2] the test system is latently HIV-1 infected J89GFP T cells. Description: HIV-1 reactivation in latently HIV-1 infected J89GFP T cells (flow cytometry / HTS). The class given is cell-based. The following applies: 10 ng/ml PMA, three J89GFP populations. The protocol: as §1
In general terms: Flow cytometry measures light scatter and fluorescence of single cells or particles in a stream.

Data set [3] concerns latently HIV-2 infected J2574 reporter T cells (HIV-2 7312A). As to the kind of experiment: Reactivation of latent HIV-2 infection in J2574 reporter T cells. The format is cell-based. As to conditions: GFP-negative sorted population.
Experimental: J2574 reporter T cells were infected with HIV-2 7312A and a latently infected cell population was established (>90% latently infected cells). The cell population was then pretreated with varying concentrations of dactinomycin (0-8 ng/ml) for 18 hours and then either left untreated (C) or stimulated with a sub-optimal dose of HRF, which by itself triggered reactivation in 10% of the cells. Reactivation levels were determined 24 hours post HRF activation by quantifying the level of GFP-positive cells using flow cytometric analysis.
J2574 reporter T cells were generated by retrovirally transducing Jurkat T cells with a HIV-1 reporter construct (p2574) in which the HIV-1 LTR controls the expression of GFP. The HIV-1 LTR and the GFP gene are separated by a 2,500 base pair (bp) spacer element. Lentiviral particles were produced by transfecting 293T cells with p2574 and supplying gag-pol-rev-tat in trans. VSV-G was used as viral envelope protein. Following lentiviral transduction of Jurkat cells, all cells that spontaneously expressed GFP were removed by cell sorting. The GFP-negative population was then activated with PMA to identify all cells that would harbor an inducible LTR-GFP-LTR integration event. Cells that turned GFP-positive following stimulation were again selected by cell sorting. GFP expression in this population ceased after a few days leaving a population of GFP-negative reporter cells. The amount of founder cells for this population is calculated to represent >50,000 individual integration events.
To determine the ability of dactinomycin to prime a latent HIV-2 infection, a latently HIV-2 infected population of GFP reporter T cells were tested. Briefly, to create the latent HIV-2 infected population, J2574 reporter cells were infected with HIV-2 7312A and a population of latently HIV-2 infected cells was generated by removing the actively infected, GFP-positive cells using a fluorescence activated cell sorter.
For data set [4], the system named is HIV-1 LTR (integrated LTR-EGFP construct, NOMI cells). Description: Tat-independent activation of integrated LTR-GFP construct in NOMI reporter T cells. The following applies: 24 hours. The class given is cell-based. The protocol:
(§2) FIGS. 6A-6C show HRF triggers suboptimal functional induction of NF-κB dependent gene expression. […] The HIV-1 reactivating kinetics were determined by stimulating CA5 T cells with optimal concentrations of HRF, phorbol 12-myristate 13-acetate (PMA) and tumor necrosis factor-α (TNF-α) and analyzing HIV-1 reactivation as a function of EGFP-expression over a period of 48 hours. Data for all agents are depicted as the percentage of EGFP-positive cells in the total cell population. […] To test the ability of HRF to mediate Tat-independent activation of the HIV-1 LTR, NOMI cells (HIV-1 reporter cell line with an integrated LTR-EGFP construct) were stimulated with increasing concentrations of PMA (0.01-10 ng/ml), TNF-α (0.003-30 μg/ml) and HRF supernatant (0.3-100 μl). The level of LTR-induction was then measured as EGFP-expression detectable after 24 hours as determined by flow cytometric analysis. Arrows indicate the concentrations at which the respective stimulus would have triggered full HIV-1 reactivation in the latently HIV-1 infected CA5 T cell line. […] 293T cells were transfected with several NF-κB dependent promoter constructs and then stimulated with either TNF-α (10 μg/ml) or HRF (25 μl). Promoter induction was measured as total EGFP expression. […]

Data set [5] relates to chronically actively infected T cell lines JNLG#35 and JNLG#44. Description: Active HIV-1 transcription in chronically actively infected GFP-reporter T cells (GFP MCF). The class given is cell-based. As to conditions: 48 hours after addition. The method, then:
Changes in HIV-1 transcription levels were determined after 48 hours by measuring GFP mean channel fluorescence intensity (GFP MCF). GFP MCF was plotted over the drug concentration for dactinomycin (FIG. 12A), the DNA intercalators daunorubicin (DM) (FIG. 12B) and rebeccamycin (RM) (FIG. 12C), as well as the transcription inhibitors ICRF-193 (FIG. 12D), DRB (FIG. 12E) and α-amanitin (FIG. 12F). The size of symbols indicates the respective cell viability in the sample (size range adjusted to 5-95%).
For this purpose, each of the compounds was titrated over a relevant range of concentrations on two chronically actively infected T cell lines (JNLG#35 and JNLG#44). These clonal cell lines are infected with a GFP-reporter virus. Forty eight hours after addition of the compounds, the effect of each compound on HIV-1 transcription was determined by flow cytometric analysis quantifying GFP mean channel fluorescence intensity (MCF).

Data set [6] has as its system NF-κB dependent promoters in 293T cells. Description: NF-κB dependent promoter GFP constructs transfected into 293T cells. The format is cell-based. The protocol:
as §2

Where two headings read alike, the source gives them in different places. Where a SMILES comes first, the peptide text is derived from it. The star is where a group is joined. Cbz = O=C(OCc1ccccc1)* Where only a bound is given, the exact number is not on record here.

As to `CC[C@H](C)[C@@H]1NC(=O)CNC(=O)[C@@H]2Cc3c([nH]c4cc(O)ccc34)[S+]([O-])C[C@@H](NC(=O)CNC1=O)C(=O)N[C@@H](CC(N)=O)C(=O)N1C[C@H](O)C[C@H]1C(=O)N[C@@H]([C@@H](C)[C@@H](O)CO)C(=O)N2` (stereo in doubt) [α-amanitin], in data set [1], the “cytotoxicity at higher concentrations” value is listed as “high levels of cytotoxicity”, the “effect of higher concentrations on HIV-1 reactivation triggered by HRF or TNF-α” value is “inhibit HIV-1 reactivation” and the “priming effect on HIV-1 reactivation by sub-optimal dose of HRF” value (“priming effect on HIV-1 reactivation” for short) was “None of the inhibitors exerted a priming effect”. Further, the “priming effect on HIV-1 reactivation” value in data set [1] (listed as α-aminitin) is reported as “did not exhibit any priming effect”.

As for `OC[C@H]1O[C@@H](n2cnc3cc(Cl)c(Cl)cc32)[C@H](O)[C@@H]1O` [DRB, 5,6 dichloro-beta-D-ribofuranosylbenzimidazole], in data set [1], the “cytotoxicity at higher concentrations” value is “high levels of cytotoxicity” and the “effect of higher concentrations on HIV-1 reactivation triggered by HRF or TNF-α” value was “inhibit HIV-1 reactivation”.

In the case of `CC(=O)NCCCCCCNC(C)=O` [HMBA, Hexamethylene bisacetamide], the reactivation levels in data set [1] (HMBA alone, compared to TNF-α, PMA or HRF) is reported as under 40%. Also, the “cells with reactivated HIV-1” value in data set [1] (HMBA at 3 mM) was found to be 15%; in data set [1] (HMBA at 9 mM) it was 35%. The compound toxicity entry in data set [1] (HMBA at 9 mM) is “onset of compound toxicity”. For the same compound, the reactivation in data set [1] (combination of HMBA and TNF-α) is on record as 81%; in data set [1] (optimal dose of HMBA alone), 27%. In addition, the “priming of latent HIV-1 infection for reactivation by sub-optimal TNF-α” value in data set [1] (sub-toxic concentrations) was “relatively potent at priming latent HIV-1 infection for full reactivation”. In addition, the “optimal concentration as HIV-1 priming agent, prior to onset of drug mediated toxicities” value in data set [1] (titration on CA5 T cells) is 3 to 10 mM.

Turning to `CC(C)C[C@@H](C=O)NC(=O)[C@H](CC(C)C)NC(=O)[C@H](CC(C)C)NC(=O)OCc1ccccc1` [MG132] (Cbz-Leu-Leu-Leu-aldehyde), the “priming effect on HIV-1 reactivation” value in data set [1] is reported as “did not exhibit any priming effect”.

As for `CCCCCCCCCCCCCC(=O)O[C@@H]1[C@@H](C)[C@@]2(O)[C@@H](C=C(CO)C[C@]3(O)C(=O)C(C)=C[C@@H]23)[C@@H]2C(C)(C)[C@]12OC(C)=O` [PMA, 13-phorbol-12-myristate acetate], the “maximum achievable HIV-1 reactivation levels” value in data set [2] amounted to 90±3%. Also, the “cells latently infected as revealed by PMA stimulation” value in data set [3] is reported as over 90%. Besides, the “Tat-independent activation of integrated LTR-GFP construct (GFP expression)” value in data set [4] is reported as “stimulated Tat-independent activation of the integrated LTR-GFP construct”.

Turning to `CC[C@@]1(O)C[C@H](O[C@H]2C[C@H](N(C)C)[C@H](O[C@H]3C[C@H](O)[C@H](O[C@H]4CCC(=O)[C@H](C)O4)[C@H](C)O3)[C@H](C)O2)c2c(cc3c(c2O)C(=O)c2c(O)cccc2C3=O)[C@H]1C(=O)OC` [aclacinomycin], the “priming effect on HIV-1 reactivation” value in data set [1] is listed as “strong priming effect”.

Regarding `CC[C@@]1(O)C(=O)OCc2c1cc1n(c2=O)Cc2cc3ccccc3nc2-1` [camptothecin], in data set [1], the “priming effect on HIV-1 reactivation” value is “None of the inhibitors exerted a priming effect”.

On to `COc1cccc2c1C(=O)c1c(O)c3c(c(O)c1C2=O)C[C@@](O)(C(C)=O)C[C@@H]3O[C@H]1C[C@H](N)[C@H](O)[C@H](C)O1` [daunorubicin], for which, in data set [5], the “effect on active HIV-1 infection / transcription (GFP MCF)” value is listed as “boosted active HIV-1 transcription”.

With `O=C1[O][Pt]2([NH][C@@H]3CCCC[C@H]3[NH]2)[O]C1=O` [oxaliplatin], in data set [1], the “priming effect on HIV-1 reactivation” value is “not reproduced”.

Regarding `CO[C@H]1[C@H](O)[C@@H](O)[C@H](n2c3c(Cl)cccc3c3c4c(c5c6cccc(Cl)c6[nH]c5c32)C(=O)NC4=O)O[C@@H]1CO` [rebeccamycin], the “priming effect on HIV-1 reactivation” value in data set [1] is “not reproduced”. Further, the “effect on active HIV-1 infection / transcription (GFP MCF)” value in data set [5] is “boosted active HIV-1 transcription”.

Turning to TNF-α, in data set [1] (sub-optimal dose of TNF-α alone), the reactivation was found to be 32%. Besides, the “Tat-independent activation of integrated LTR-GFP construct (GFP expression)” value in data set [4] is listed as “stimulated Tat-independent activation of the integrated LTR-GFP construct”. Further, the “GFP expression driven by NF-κB responsive promoter constructs (IL-8, TNF-α, HIV-1 LTR, three consensus NF-κB sites)” value in data set [6] (TNF-α 10 μg/ml or HRF 25 μl) is “efficiently induced”. Moreover, the “GFP expression of construct under murine stem cell virus LTR (no NF-κB responsive element)” value in data set [6] (control construct) is on record as “Neither TNF-α nor HRF influenced GFP expression”.
